Consider two molecules from patent publication US20240050434A1, “HORMAD1 THERAPEUTICS” (Royal Cancer Hospital, priority 2020, published 2024).

“Also recorded” adds a separate entry of the source.

Assay [1] deals with HORMAD1 positive organoid KCL625. Kind of assay: HORMAD1 positive organoid KCL625 viability by cell titer glo. The format is cell-based. The note with it: indicated doses, 10 days. As to the method:
Organoids were treated with the indicated doses of drug for 10 days and cell viability assessed by cell titer glo. Data is presented as mean and standard deviation of triplicate wells;

The target in another assay is AURORA B kinase (Homo sapiens, UniProt Q96GD4). The following applies: competitive ATP inhibition; Mortlock et al., 2007; cited from earlier work.
AURORA B kinase, sequence (Q96GD4 whole entry): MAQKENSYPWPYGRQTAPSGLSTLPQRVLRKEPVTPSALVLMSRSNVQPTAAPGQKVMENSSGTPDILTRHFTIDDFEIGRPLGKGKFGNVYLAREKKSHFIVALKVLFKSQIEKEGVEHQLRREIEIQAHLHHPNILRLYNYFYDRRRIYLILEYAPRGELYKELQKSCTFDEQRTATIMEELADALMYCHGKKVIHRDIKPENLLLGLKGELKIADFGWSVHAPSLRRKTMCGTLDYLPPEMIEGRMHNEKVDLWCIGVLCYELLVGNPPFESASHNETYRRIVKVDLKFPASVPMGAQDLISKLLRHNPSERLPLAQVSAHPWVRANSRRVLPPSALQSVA
The subject of assay [2] is RPE1 cells expressing a doxycycline-inducible HORMAD1 construct. Kind of assay: Cell viability by cell titre glo in RPE1 cells with doxycycline-inducible HORMAD1. The format is cell-based. As to the method:
RPE1 cells expressing a doxycycline-inducible HORMAD1 construct were treated with doxycycline or vehicle. […] Six days post HORMAD1 induction and 5 days post drug, cell viability was estimated using cell titre glo reagent. Surviving fractions were calculated (normalised to vehicle treated cells).
RPE1 and SUM159 cells expressing a doxycycline-inducible HORMAD1 construct were treated with doxycycline or vehicle. […] Surviving fractions were calculated (normalised to vehicle treated cells). (FIGS. 7a, b and 14c and d). Data from 3 replicas was analysed using 2-way ANOVA. 5 days post drugging, cell viability was estimated using cell titre glo reagent. Surviving fractions were calculated (normalised to vehicle treated cells). Data from 4 replicas was analysed using 2-way ANOVA.
RPE1 cells expressing a doxycycline-inducible HORMAD1 construct were treated with doxycycline or vehicle. […] 5 days post drugging, cell viability was estimated using cell titre glo reagent. Surviving fractions were calculated (normalised to vehicle treated cells).
RPE1 cells expressing a doxycycline-inducible HORMAD1 construct were treated with doxycycline or vehicle in order to induce HORMAD1 expression. […] Using cell titre glo as a measure of cell viability, surviving fractions were calculated (normalised to eribulin alone).
RPE1 cells expressing a doxycycline-inducible HORMAD1 construct were treated with doxycycline or vehicle. […] Using cell titre glo as a measure of cell viability, surviving fractions were calculated (normalised to olaparib alone).

In assay [3] the test system is MDA-157, MDA-468, MDA436 TNBC cell-lines and MCF10A, MTSV1 non-transformed breast cell-lines. As to the kind of experiment: SRB viability in HORMAD1-positive TNBC cell-lines versus non-transformed breast cell-lines. The assay is classed as cell-based. The following applies: increasing doses, 10-14 days post drugging. As to the method: To confirm that endogenous HORMAD1 expression in cancer cells (as opposed to transgene-driven HORMAD1 expression) also causes BUB1 inhibitor sensitivity, increasing doses of BUB1 inhibitor was added to 3 HORMAD1-positive triple-negative breast cancer cell-lines (TNBC) and 2 HORMAD1-negative non-transformed breast cell-lines.
Three HORMAD1 positive TNBC cell-lines (MDA-157, MDA-468, MDA436) and two non-transformed breast cell-lines (MCF10A and MTSV1) were treated with increasing doses of BUB1 inhibitor BAY-1816032. 10-14 days post drugging, cell viability was estimated by staining cells with SRB and measuring absorbance. Surviving fractions were calculated (normalised to vehicle treated cells). Data is from 3 replicas, analysed using 2-way ANOVA.

For assay [4], the system named is TP53 null MCF10A cells expressing a doxycycline-inducible HORMAD1 construct (3D spheroids). Kind of assay: 3D spheroid viability (cell titre glo) in TP53 null MCF10A cells with inducible HORMAD1. The format is cell-based. The note with it: increasing doses, 14 days post drugging. As to the method:
TP53 null MCF10A cells expressing a doxycycline-inducible HORMAD1 construct were treated with doxycycline or vehicle. Cells were grown in 3D spheroid cultures. Following doxycycline induction, increasing doses of BUB1 inhibitor BAY-1816032 was added to the cells. 14 days post drugging, cell viability was estimated using cell titre glo reagent. Surviving fractions were calculated (normalised to vehicle treated cells). Data is from 3 replicas, analysed using 2-way ANOVA.

For assay [5], the system named is organoids from spontaneous tumours of WB1P mouse with or without human HORMAD1. Kind of assay: Organoids from genetically engineered mouse model tumours, viability by cell titre glo. The note with it: increasing doses, 14 days post drugging. The assay is classed as cell-based. The source says: In a further experiment, HORMAD1 was expressed within a genetically engineered mouse model of triple-negative breast cancer (original model published in Annunziato et al., 2019). Human HORMAD1 was expressed in the WB1P mouse (Annunziato et al., 2019) using a transgene and derived organoids from spontaneous tumours.
Genetically engineered mouse models were generated by conditionally deleting BRCA1 and P53 in breast epithelia (Liu et al., 2007). Human HORMAD1 fused to luciferase was conditionally expressed under a breast-specific promoter. Spontaneous tumours from these mice were isolated and grown as organoids, treated with increasing doses of BUB1 inhibitor, BAY-1816032. 14 days post drugging, cell viability was estimated using cell titre glo reagent. Surviving fractions were calculated (normalised to vehicle treated cells). Data from 3 replicas, analysed using 2-way ANOVA.

Consider `CCN(CCO)CCCOc1ccc2c(Nc3cc(CC(=O)Nc4cccc(F)c4)[nH]n3)ncnc2c1` [AZD1152-HQPA], for which the “sensitivity (surviving fraction versus DMSO) of organoid KCL625” value in assay [1] is given as “highly sensitive; also recorded: high sensitivity”. Besides, the “inhibition of AURORA B kinase activity” value at AURORA B kinase is recorded as “potently inhibits”.
Turning to `COc1cnccc1Nc1nc(-c2nn(Cc3c(F)cc(OCCO)cc3F)c3ccccc23)ncc1OC` [BAY-1816032], in assay [2] (increasing doses alongside 0.4 nm eribulin, normalised to eribulin alone), the “growth inhibition (surviving fraction) of HORMAD1 expressing versus HORMAD1-negative RPE1 cells, with eribulin” value was “more effectively inhibited”. The “growth inhibition (surviving fraction) of HORMAD1 expressing versus HORMAD1-negative RPE1 cells, with olaparib” value in assay [2] (increasing doses alongside 0.47 μm olaparib, normalised to olaparib alone) is “more effectively inhibited”. Also, in assay [2] (increasing doses, 5 days post drug, cell titre glo, normalised to vehicle), the “growth inhibition (surviving fraction) of HORMAD1 expressing versus HORMAD1-negative RPE1 cells” value is given as “more effectively inhibited”. Also, the “surviving fraction, HORMAD1-positive TNBC cell-lines compared with HORMAD1-negative non-transformed cell-lines” value in assay [3] is “significant differences”. Also, the “growth inhibition of HORMAD1 expressing versus HORMAD1-negative spheroids” value in assay [4] is “more effectively inhibited”. In assay [5], the “growth inhibition of HORMAD1-expressing versus HORMAD1-negative mouse tumour organoids” value is on record as “more effectively inhibited”.
